Where a name gives a salt, the structure may show the parent alone.

This is an account of results in patent US6423727B1, “Certain thiol inhibitors of endothelin-converting enzyme” (Novartis AG, priority 1998, dated 2002).

For the molecule `O=C(O)[C@H](Cc1ccc(-c2ccccc2)cc1)NC(=O)C1(NC(=O)[C@@H](S)Cc2ccc(-c3ccccc3)cc2)CCCC1`, the melting point (commonly the temperature of the solid-liquid transition) fell in the range of 187 to 189 °C.

Turning to `CC[C@@H](C)[C@H](S)C(=O)NC1(C(=O)NC(Cc2ccc(-c3cncnc3)cc2)C(=O)O)CCCC1` (stereo in doubt) (as salt: hydrochloride) [2-{[1-(2-Mercapto-3-methyl-pentanoylamino)-cyclopentanecarbonyl]-amino}-3-(4-pyrimidin-5-yl-phenyl)-propionic acid hydrochloride], the melting point fell in the range of 170 to 184 °C.

Turning to `COc1cccc(-c2ccc(CC(NC(=O)C3(NC(=O)[C@@H](S)C(C)C)CCCC3)C(=O)O)cc2)c1` (stereo in doubt) [2-{[1-(2-Mercapto-3-methyl-butanoylamino)-cyclopentanecarbonyl]-amino}-3-(3′-methoxy-biphenyl-4-yl)-propionic acid], the melting point lay in the range of 159 to 160 °C.

The molecule `COc1ccc(-c2ccc(C[C@H](NC(=O)C3(NC(=O)[C@@H](S)C(C)C)CCCC3)C(=O)O)cc2)cc1` (stereo in doubt) [2-{[1-(2-Mercapto-3-methyl-butanoylamino)-cyclopentanecarbonyl]-amino}-3-(4′-methoxy-biphenyl-4-yl)-propionic acid] came in with a melting point of 179 to 181 °C.

Molecule `CC(C)[C@H](S)C(=O)NC1(C(=O)N[C@@H](Cc2ccc3c(c2)CCCC3)C(=O)O)CCCC1` (stereo in doubt) [2-{[1-(2-Mercapto-3-methyl-butanoylamino)-cyclopentanecarbonyl]-amino}-3-(5,6,7,8-tetrahydro-naphthalen-2-yl)-propionic acid] registered a melting point of 190 to 192 °C.

With `CC(C)[C@H](S)C(=O)NC1(C(=O)N[C@@H](Cc2ccc(-c3cccs3)cc2)C(=O)O)CCCC1` (stereo in doubt) [2-{[1-(2-Mercapto-3-methyl-butanoylamino)-cyclopentanecarbonyl]-amino}-3-[4-(thiophen-2-yl)-phenyl]-propionic acid], the melting point lay in the range of 179 to 181 °C.

Molecule `CC[C@H](C)[C@H](S)C(=O)NC1(C(=O)NC(Cc2ccc(-c3cncnc3)cc2)C(=O)O)CCCC1` (stereo in doubt) [2-{[1-(2-Mercapto-3-methyl-pentanoylamino)-cyclopentanecarbonyl]-amino}-3-(4-pyrimidin-5-yl-phenyl)-propionic acid] yielded a melting point of 206 to 208 °C.

`CC[C@H](C)C(S)C(=O)NC1(C(=O)N[C@@H](Cc2ccc(-c3ccsc3)cc2)C(=O)O)CCCC1` (stereo in doubt) [2-{[1-(2-Mercapto-3-methyl-pentanoylamino)-cyclopentanecarbonyl]-amino}-3-[4-(thiophen-3-yl)-phenyl]-propionic acid] yielded a melting point of 99 to 101 °C.

As for `COc1cc(C[C@H](NC(=O)C2(NC(=O)[C@@H](S)C(C)C)CCCC2)C(=O)O)ccc1-c1ccccc1` (stereo in doubt) [2-{[1-(2-Mercapto-3-methylbutanoylamino)-cyclopentanecarbonyl]-amino}-3-(2-methoxybiphenyl-4-yl)-propionic acid], the melting point fell in the range of 121 to 123 °C.

Turning to `CC(C)[C@H](S)C(=O)NC1(C(=O)N[C@@H](Cc2ccc(-c3ccc(C(F)(F)F)cc3)cc2)C(=O)O)CCCC1` (stereo in doubt) [2-{[1-(2-Mercapto-3-methylbutanoylamino)-cyclopentanecarbonyl]-amino}-3-(4′-trifluoromethyl-biphenyl-4-yl)-propionic acid], the melting point was in the range of 235 to 236 °C.

Regarding `CC(C)[C@H](S)C(=O)NC1(C(=O)N[C@@H](Cc2cccc3c2CCCC3)C(=O)O)CCCC1` (stereo in doubt) [2-{[1-(2-Mercapto-3-methylbutanoylamino)-cyclopentanecarbonyl]-amino}-3-(5,6,7,8-tetrahydro-naphthalen-1-yl)-propionic acid], the melting point lay within 158 to 164 °C.

Turning to `O=C(O)[C@H](Cc1ccc(-c2ccc(C(F)(F)F)cc2)cc1)NC(=O)C1(NC(=O)[C@@H](S)Cc2ccccc2)CCCC1` (stereo in doubt) [2-{[1-(2-Mercapto-3-phenyl-propionylamino)-cyclopentanecarbonyl]-amino}-3-(4′-trifluoromethyl-biphenyl-4-yl)-propionic acid], the melting point lay within 222 to 225 °C.

`O=C(NC1(C(=O)N[C@@H](Cc2ccc(-c3ccsc3)cc2)C(=O)O)CCCC1)C(S)Cc1ccccc1` (stereo in doubt) [2-{[1-(2-Mercapto-3-phenyl-propionylamino)-cyclopentanecarbonyl]-amino}-3-[4-(thiophen-3-yl)-phenyl]-propionic acid] had a melting point of 190 to 192 °C.

Turning to `CC(C)C[C@H](S)C(=O)NC1(C(=O)NC(Cc2ccc(-c3cncnc3)cc2)C(=O)O)CCCC1` (stereo in doubt) [2-{[1-(2-Mercapto-4-methyl-pentanoylamino)-cyclopentanecarbonyl]-amino}-3-(4-pyrimidin-5-yl-phenyl)-propionic acid], the melting point was 192 to 195 °C.

In the case of `CSc1ccc(-c2ccc(C[C@H](NC(=O)C3(NC(=O)[C@@H](S)CC(C)C)CCCC3)C(=O)O)cc2)cc1` (stereo in doubt) [2-{[1-(2-mercapto4-methyl-pentanoylamino)-cyclopentanecarbonyl]-amino}-3-(4′-methylthio-biphenyl-4-yl)-propionic acid], the melting point lay in the range of 187 to 189 °C.

`COc1ccccc1-c1ccc(C[C@H](NC(=O)C2(NC(=O)[C@@H](S)C(C)C)CCCC2)C(=O)O)cc1OC` (stereo in doubt) [3-(2,2′-Dimethoxy-biphenyl-4-yl)-2-{[1-(2-mercapto-3-methyl-butanoylamino)-cyclopentanecarbonyl]-amino}-propionic acid] had a melting point of 173 to 175 °C.

`CC(C)[C@H](S)C(=O)NC1(C(=O)N[C@@H](Cc2ccc(-c3ccccc3F)cc2)C(=O)O)CCCC1` (stereo in doubt) [3-(2′-Fluoro-biphenyl-4-yl)-2-{[1-(2-mercapto-3-methyl-butanoylamino)-cyclopentanecarbonyl]-amino}-propionic acid]: the melting point was in the range of 171 to 173 °C.

For `CC(C)C[C@H](S)C(=O)NC1(C(=O)NC(Cc2ccc(-c3ccccc3O)cc2)C(=O)O)CCCC1` (stereo in doubt) [3-(2′-Hydroxy-biphenyl-4-yl)-2-{[1-(2-mercapto-4-methyl-pentanoylamino)-cyclopentanecarbonyl]-amino}-propionic acid], the melting point is 215 to 217 °C.

Take `CC(C)C[C@H](S)C(=O)NC1(C(=O)N[C@@H](Cc2ccc(-c3cccc(F)c3)cc2)C(=O)O)CCCC1` (stereo in doubt) [3-(3′-Fluoro-biphenyl-4-yl)-2-{[1-(2-mercapto-4-methyl-pentanoylamino)-cyclopentanecarbonyl]-amino}-propionic acid]: the melting point was in the range of 125 to 128 °C.

`CC(C)C[C@H](S)C(=O)NC1(C(=O)N[C@@H](Cc2ccc(-c3ccno3)cc2)C(=O)O)CCCC1` (stereo in doubt) [3-(4-Isoxazole-5-yl-phenyl)-2-{[1-(2-mercapto4-methyl-pentanoylamino)-cyclopentanecarbonyl]-amino}-propionic acid] showed a melting point of 104 to 110 °C.

Take `CCC[C@H](S)C(=O)NC1(C(=O)N[C@@H](Cc2ccc(-c3ccno3)cc2)C(=O)O)CCCC1` (stereo in doubt) [3-(4-Isoxazole-5-yl-phenyl)-2-{[1-(2-mercapto-pentanoylamino)-cyclopentanecarbonyl]-amino}-propionic acid]: the melting point is 95 to 108 °C.

In turn, `CC(C)[C@H](S)C(=O)NC1(C(=O)N[C@@H](CC2CCC(C3CCCCC3)CC2)C(=O)O)CCCC1` (stereo in doubt) [3-Bicyclohexyl-4-yl-2-{[1-(2-mercapto-3-methyl-butanoylamino)-cyclopentanecarbonyl]-amino}-propionic acid] returned a melting point of 209 to 210 °C.

In turn, `CC(C)[C@H](S)C(=O)NC1(C(=O)N[C@@H](Cc2cccc(-c3ccccc3)c2)C(=O)O)CCCC1` (stereo in doubt) [3-Biphenyl-3-yl-2-{[1-(2-mercapto-3-methylbutanoylamino)-cyclopentanecarbonyl]-amino}-propionic acid] gave a melting point of 75 to 78 °C.

Regarding `CC(C)[C@H](S)C(=O)NC1(C(=O)N[C@@H](Cc2ccc(-c3ccccc3)cc2)C(=O)O)CCc2ccccc21` (stereo in doubt) [3-Biphenyl-4-yl-2-{[1-(2-mercapto-3-methyl-butyrylamino)-indane-1-carbonyl]-amino}-propionic acid], the melting point lay in the range of 115 to 120 °C.

With `O=C(O)[C@H](Cc1ccc(-c2ccccc2)cc1)NC(=O)C1(NC(=O)[C@@H](S)Cc2ccc3ccccc3c2)CCCC1` (stereo in doubt) [3-Biphenyl-4-yl-2-{[1-(2-mercapto-3-naphthalen-2-yl-propionylamino)-cyclopentanecarbonyl]-amino}-propionic acid], the melting point is 166 to 168 °C.

Molecule `CC(C)[C@H](S)C(=O)NC1(C(=O)N[C@@H](Cc2ccc(-c3ccccc3)cc2)C(=O)O)CCOCC1` (stereo in doubt) [3-Biphenyl-4-yl-2-{[4-(2-mercapto-3-methyl-butanoylamino)-tetrahydro-pyran-4-carbonyl]-amino}-propionic acid] came in with a melting point of 161 to 163 °C.

The molecule `CC(=O)N1CCCC(c2ccc(C[C@H](NC(=O)C3(NC(=O)[C@@H](S)C(C)C)CCCC3)C(=O)O)cc2)C1` (stereo in doubt) [3-[4-(1-Acetyl-piperidin-3-yl)-phenyl]-2-{[1-(2-mercapto-3-methyl-butanoylamino)-cyclopentanecarbonyl]-amino}-propionic acid] had a melting point of 190 to 192 °C.

`CC(C)[C@H](S)C(=O)NC1(C(=O)NC(Cc2ccc(-c3csc(CO)c3)cc2)C(=O)O)CCCC1` (stereo in doubt) [3-[4-(5-Hydroxymethyl-thiophen-3-yl)-phenyl]-2-{[1-(2-mercapto-3-methyl-butanoylamino)-cyclopentanecarbonyl]-amino}-propionic acid] had a melting point of 155 to 158 °C.

As for `CC(C)[C@H](S)C(=O)NC1(C(=O)NC(Cc2ccc(-c3ccncc3)cc2)C(=O)O)CCCC1` (some centres unmarked) [2-{[1-(2-Mercapto-3-methyl-butanoylamino)-cyclopentanecarbonyl]-amino}-3-(4-yl-phenyl)-propionic acid], the melting point was 236 to 238 °C.
